Test results as given in ChEMBL document CHEMBL1201862, “PubChem BioAssay data set” (2004).
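Briefly, cells in 96-well plates were exposed to five compound concentrations for 48 h, and endpoints were estimated by linear interpolation. GI50 = concentration required for 50% inhibition of growth.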 The source made the active and inactive calls. Rule as the data show it: active = GI50 up to about 1.1 µM and inactive = higher.

Columns and labels:
Assay in all cases: NCI-60 cell line screen, 48 h
MDA-N = tested on: MDA-N
SNB-75 = tested on: SNB-75
Hs-578T = tested on: Hs-578T
SK-MEL-2 = tested on: SK-MEL-2
DMS-114 = tested on: DMS-114
ACHN = tested on: ACHN
OVCAR-5 = tested on: OVCAR-5
OVCAR-3 = tested on: OVCAR-3
CAKI-1 = tested on: CAKI-1
A549 = tested on: A549
SW-620 = tested on: SW-620
NCI-H460 = tested on: NCI-H460
SN12C = tested on: SN12C
MDA-MB-231 = tested on: MDA-MB-231
NCI/ADR-RES = tested on: NCI/ADR-RES
NCI-H23 = tested on: NCI-H23
U-251 = tested on: U-251
M14 = tested on: M14
A498 = tested on: A498
HT-29 = tested on: HT-29

SMILES | GI50 (MDA-N) | GI50 (SNB-75) | GI50 (Hs-578T) | GI50 (SK-MEL-2) | GI50 (DMS-114) | GI50 (ACHN) | GI50 (OVCAR-5) | GI50 (OVCAR-3) | GI50 (CAKI-1) | GI50 (A549) | GI50 (SW-620) | GI50 (NCI-H460) | GI50 (SN12C) | GI50 (MDA-MB-231) | GI50 (NCI/ADR-RES) | GI50 (NCI-H23) | GI50 (U-251) | GI50 (M14) | GI50 (A498) | GI50 (HT-29)
C=C1C(C)C2C(Cc3ccccc3)NC(=O)C23C(OC(C)=O)C=CC(C)(O)C(=O)C(C)C/C=C/C3C1O (stereo not given) | 15.6 µM (inactive) | 0.0333 µM (active) | 0.0652 µM (active) | 6.22 µM (inactive) | 8.71 µM (inactive) | 0.889 µM (active) | 68.9 µM (inactive) | 22.4 µM (inactive) | 0.129 µM (active) | 0.764 µM (active) | 87.7 µM (inactive) | 0.258 µM (active) | 39.3 µM (inactive) | 0.151 µM (active) | > 65.9 µM (inactive) | 12.9 µM (inactive) | 0.0925 µM (active) | 7.24 µM (inactive) | – | –
CCOC(=O)NC1=C(N2CC2)C(=O)C(NC(=O)OCC)=C(N2CC2)C1=O [DIAZIQUONE] | 3.4 µM (inactive) | 4.73 µM (inactive) | 13.2 µM (inactive) | 5.96 µM (inactive) | 2.01 µM (inactive) | 0.82 µM (active) | 7.85 µM (inactive) | 4.75 µM (inactive) | 1.08 µM (active) | – | 4.97 µM (inactive) | 0.188 µM (active) | 1.36 µM (inactive) | 8.13 µM (inactive) | 3.48 µM (inactive) | 1.85 µM (inactive) | 2.51 µM (inactive) | 2.62 µM (inactive) | 3.56 µM (inactive) | 7.73 µM (inactive)
CN(C)/C(N)=N\C#N | – | > 100 µM (inactive) | – | > 100 µM (inactive) | 93.8 µM (inactive) | > 100 µM (inactive) | > 100 µM (inactive) | > 100 µM (inactive) | > 100 µM (inactive) | > 100 µM (inactive) | 21 µM (inactive) | > 100 µM (inactive) | > 100 µM (inactive) | – | – | > 100 µM (inactive) | > 100 µM (inactive) | > 100 µM (inactive) | > 100 µM (inactive) | > 100 µM (inactive)
O=C1C(NCCO)=C(N2CC2)C(=O)C(NCCO)=C1N1CC1 | > 60.4 µM (inactive) | 63.8 µM (inactive) | > 100 µM (inactive) | > 58.3 µM (inactive) | 19.5 µM (inactive) | 30.8 µM (inactive) | 58.2 µM (inactive) | 33.7 µM (inactive) | 85.9 µM (inactive) | 44.5 µM (inactive) | 46.8 µM (inactive) | 10.2 µM (inactive) | 26.5 µM (inactive) | > 90.4 µM (inactive) | > 100 µM (inactive) | 29.2 µM (inactive) | 31.5 µM (inactive) | 47.3 µM (inactive) | > 100 µM (inactive) | 49 µM (inactive)
NC(=O)c1c[se]c(C2OC(COP(=O)(O)CP(=O)(O)OCC3OC(n4cnc5c(N)ncnc54)C(O)C3O)C(O)C2O)n1 (stereo not given) | – | > 100 µM (inactive) | – | > 100 µM (inactive) | 97.5 µM (inactive) | 64.3 µM (inactive) | > 100 µM (inactive) | > 100 µM (inactive) | 43.3 µM (inactive) | 51.3 µM (inactive) | 30.9 µM (inactive) | 44.8 µM (inactive) | > 100 µM (inactive) | – | – | > 100 µM (inactive) | 61 µM (inactive) | 72.8 µM (inactive) | > 100 µM (inactive) | 53.2 µM (inactive)
CCOc1ccc(NCc2cc(OC)c(OC)c(OC)c2)cc1 | – | 1.04 µM (active) | 1.38 µM (inactive) | – | 0.291 µM (active) | 10.7 µM (inactive) | – | 0.339 µM (active) | – | 0.847 µM (active) | 0.35 µM (active) | 0.499 µM (active) | – | 2.5 µM (inactive) | 0.324 µM (active) | 1.24 µM (inactive) | 0.513 µM (active) | 0.371 µM (active) | – | 0.366 µM (active)
O=C1NC(=O)C2C3C=CC(C12)C1C2C(=O)NC(=O)C2C31 (stereo not given) | 701 µM (inactive) | 197 µM (inactive) | 100 µM (inactive) | 173 µM (inactive) | 125 µM (inactive) | > 250 µM (inactive) | > 250 µM (inactive) | 242 µM (inactive) | 203 µM (inactive) | 93.8 µM (inactive) | 167 µM (inactive) | 53.7 µM (inactive) | 192 µM (inactive) | > 250 µM (inactive) | > 250 µM (inactive) | 245 µM (inactive) | 203 µM (inactive) | 240 µM (inactive) | 158 µM (inactive) | 177 µM (inactive)
CCOP1(=O)C=CC(Cl)=C(C)C1 (stereo not given) | – | 4.67 µM (inactive) | – | 12.9 µM (inactive) | 15.6 µM (inactive) | 8.63 µM (inactive) | 24.2 µM (inactive) | 19.9 µM (inactive) | 10.5 µM (inactive) | 31.1 µM (inactive) | 11.5 µM (inactive) | 27.4 µM (inactive) | 11.7 µM (inactive) | – | – | 13 µM (inactive) | 24.4 µM (inactive) | 14.7 µM (inactive) | 29.2 µM (inactive) | 13.2 µM (inactive)
Cc1ccc(S(=O)(=O)Nc2cccc3c(=O)nc[nH]c23)cc1 | – | > 51.1 µM (inactive) | – | > 100 µM (inactive) | 31.2 µM (inactive) | 66.8 µM (inactive) | > 100 µM (inactive) | > 100 µM (inactive) | > 100 µM (inactive) | 72.8 µM (inactive) | > 100 µM (inactive) | > 100 µM (inactive) | > 100 µM (inactive) | – | – | 90.8 µM (inactive) | > 100 µM (inactive) | > 100 µM (inactive) | > 100 µM (inactive) | > 100 µM (inactive)
